Legend:
Assay in all cases: SILAC LC-MS ABPP
Assay type in all cases: cell-based
Settings in all cases: 25 μM 2 h, live DM93 cells
P49721 = target: T1, P49721 (Homo sapiens, UniProt P49721)
T1 construct: endogenous in cells; host or cells: DM93 cells (SILAC)
Summary of the method: (§1)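 Ligand engagement is measured as loss of HHS-475 probe labelling at specific tyrosines. SILAC DM93 melanoma cells were treated in situ (25 μM ligand vs DMSO, 2 h, 37 °C; then 100 μM probe, 2 h), and modified peptides were quantified by high-resolution LC-MS/MS after desthiobiotin tagging and avidin capture.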

Q92620 = target: T2, Q92620 (Homo sapiens, UniProt Q92620)
T2 construct: endogenous in cells; host or cells: DM93 cells (SILAC), live-cell treatment
T2 sequence (Q92620 whole entry): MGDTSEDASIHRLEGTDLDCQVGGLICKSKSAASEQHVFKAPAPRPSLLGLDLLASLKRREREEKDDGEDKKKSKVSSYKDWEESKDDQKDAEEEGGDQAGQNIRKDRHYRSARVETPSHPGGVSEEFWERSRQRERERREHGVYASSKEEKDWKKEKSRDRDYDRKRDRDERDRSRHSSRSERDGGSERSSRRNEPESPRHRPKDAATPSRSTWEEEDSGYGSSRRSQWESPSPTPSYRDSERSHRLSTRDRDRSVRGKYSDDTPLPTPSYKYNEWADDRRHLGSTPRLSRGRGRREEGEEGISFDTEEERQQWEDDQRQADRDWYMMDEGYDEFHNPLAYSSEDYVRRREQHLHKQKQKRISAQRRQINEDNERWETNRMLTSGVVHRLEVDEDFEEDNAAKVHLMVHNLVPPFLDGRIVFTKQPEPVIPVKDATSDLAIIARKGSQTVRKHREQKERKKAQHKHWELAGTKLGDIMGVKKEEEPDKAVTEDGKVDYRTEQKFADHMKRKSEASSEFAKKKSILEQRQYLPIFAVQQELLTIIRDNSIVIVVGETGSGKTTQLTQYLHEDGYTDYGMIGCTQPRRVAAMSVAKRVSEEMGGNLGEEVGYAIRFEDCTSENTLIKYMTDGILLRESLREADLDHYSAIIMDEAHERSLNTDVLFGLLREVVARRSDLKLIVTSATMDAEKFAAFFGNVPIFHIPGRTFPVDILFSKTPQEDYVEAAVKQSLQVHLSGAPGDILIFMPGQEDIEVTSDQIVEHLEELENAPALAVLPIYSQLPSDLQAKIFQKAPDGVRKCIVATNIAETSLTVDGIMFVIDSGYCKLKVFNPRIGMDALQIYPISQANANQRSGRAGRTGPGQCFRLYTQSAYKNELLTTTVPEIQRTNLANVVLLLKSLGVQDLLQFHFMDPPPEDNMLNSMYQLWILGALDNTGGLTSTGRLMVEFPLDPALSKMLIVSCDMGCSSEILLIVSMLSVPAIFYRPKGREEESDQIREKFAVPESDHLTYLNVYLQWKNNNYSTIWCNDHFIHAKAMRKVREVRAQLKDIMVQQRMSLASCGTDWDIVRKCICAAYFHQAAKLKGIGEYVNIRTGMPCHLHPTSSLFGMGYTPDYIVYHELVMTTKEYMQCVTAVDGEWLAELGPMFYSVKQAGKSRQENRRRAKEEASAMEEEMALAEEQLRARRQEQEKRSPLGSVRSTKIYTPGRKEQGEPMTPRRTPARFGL
Summary of the method: as §1

P13010 = target: T3, P13010 (Homo sapiens, UniProt P13010)
T3 construct: endogenous in cells; host or cells: DM93 cells (SILAC)
Summary of the method: as §1

P42704 = target: T4, P42704 (Homo sapiens, UniProt P42704)
T4 construct: endogenous in cells; host or cells: DM93 cells (SILAC)
Summary of the method: as §1

P62993 = target: T5, P62993 (Homo sapiens, UniProt P62993)
T5 construct: performing SuTEx compound screening directly in cells; endogenous in cells; host or cells: DM93 cells (SILAC)
T5 sequence (P62993 whole entry): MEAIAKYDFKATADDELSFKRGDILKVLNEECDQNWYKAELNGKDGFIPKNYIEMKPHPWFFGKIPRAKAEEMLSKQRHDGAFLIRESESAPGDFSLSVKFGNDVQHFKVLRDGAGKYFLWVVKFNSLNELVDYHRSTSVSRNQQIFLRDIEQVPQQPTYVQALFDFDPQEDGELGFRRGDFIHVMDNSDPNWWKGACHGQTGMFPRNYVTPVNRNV
Summary of the method: as §1

Q9H3P7 = target: T6, Q9H3P7 (Homo sapiens, UniProt Q9H3P7)
T6 construct: endogenous in cells; host or cells: DM93 cells (SILAC), treated live; soluble proteome analysed
Summary of the method: as §1

Q9UI12 = target: T7, Q9UI12 (Homo sapiens, UniProt Q9UI12)
T7 construct: endogenous in cells; host or cells: DM93 cells (SILAC)
T7 sequence (Q9UI12 whole entry): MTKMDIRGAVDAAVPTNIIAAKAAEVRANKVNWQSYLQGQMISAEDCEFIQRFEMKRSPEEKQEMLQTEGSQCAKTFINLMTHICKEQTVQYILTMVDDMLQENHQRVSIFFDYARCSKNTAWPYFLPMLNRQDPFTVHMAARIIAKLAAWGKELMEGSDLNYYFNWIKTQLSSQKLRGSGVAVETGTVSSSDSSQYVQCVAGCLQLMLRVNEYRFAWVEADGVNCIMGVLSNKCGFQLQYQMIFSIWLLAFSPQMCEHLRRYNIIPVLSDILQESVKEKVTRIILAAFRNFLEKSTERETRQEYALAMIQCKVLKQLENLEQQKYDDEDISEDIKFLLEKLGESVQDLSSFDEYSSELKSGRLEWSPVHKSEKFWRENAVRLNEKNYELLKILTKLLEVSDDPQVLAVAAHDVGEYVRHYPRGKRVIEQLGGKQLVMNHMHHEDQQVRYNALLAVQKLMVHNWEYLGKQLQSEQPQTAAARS
Summary of the method: as §1

P68104 = target: T8, P68104 (Homo sapiens, UniProt P68104)
T8 construct: performing SuTEx compound screening directly in cells; endogenous in cells; host or cells: DM93 cells (SILAC)
Summary of the method: as §1

Q92900 = target: T9, Q92900 (Homo sapiens, UniProt Q92900)
T9 construct: endogenous in cells; host or cells: DM93 cells (SILAC), live-cell treatment
T9 sequence (Q92900 whole entry): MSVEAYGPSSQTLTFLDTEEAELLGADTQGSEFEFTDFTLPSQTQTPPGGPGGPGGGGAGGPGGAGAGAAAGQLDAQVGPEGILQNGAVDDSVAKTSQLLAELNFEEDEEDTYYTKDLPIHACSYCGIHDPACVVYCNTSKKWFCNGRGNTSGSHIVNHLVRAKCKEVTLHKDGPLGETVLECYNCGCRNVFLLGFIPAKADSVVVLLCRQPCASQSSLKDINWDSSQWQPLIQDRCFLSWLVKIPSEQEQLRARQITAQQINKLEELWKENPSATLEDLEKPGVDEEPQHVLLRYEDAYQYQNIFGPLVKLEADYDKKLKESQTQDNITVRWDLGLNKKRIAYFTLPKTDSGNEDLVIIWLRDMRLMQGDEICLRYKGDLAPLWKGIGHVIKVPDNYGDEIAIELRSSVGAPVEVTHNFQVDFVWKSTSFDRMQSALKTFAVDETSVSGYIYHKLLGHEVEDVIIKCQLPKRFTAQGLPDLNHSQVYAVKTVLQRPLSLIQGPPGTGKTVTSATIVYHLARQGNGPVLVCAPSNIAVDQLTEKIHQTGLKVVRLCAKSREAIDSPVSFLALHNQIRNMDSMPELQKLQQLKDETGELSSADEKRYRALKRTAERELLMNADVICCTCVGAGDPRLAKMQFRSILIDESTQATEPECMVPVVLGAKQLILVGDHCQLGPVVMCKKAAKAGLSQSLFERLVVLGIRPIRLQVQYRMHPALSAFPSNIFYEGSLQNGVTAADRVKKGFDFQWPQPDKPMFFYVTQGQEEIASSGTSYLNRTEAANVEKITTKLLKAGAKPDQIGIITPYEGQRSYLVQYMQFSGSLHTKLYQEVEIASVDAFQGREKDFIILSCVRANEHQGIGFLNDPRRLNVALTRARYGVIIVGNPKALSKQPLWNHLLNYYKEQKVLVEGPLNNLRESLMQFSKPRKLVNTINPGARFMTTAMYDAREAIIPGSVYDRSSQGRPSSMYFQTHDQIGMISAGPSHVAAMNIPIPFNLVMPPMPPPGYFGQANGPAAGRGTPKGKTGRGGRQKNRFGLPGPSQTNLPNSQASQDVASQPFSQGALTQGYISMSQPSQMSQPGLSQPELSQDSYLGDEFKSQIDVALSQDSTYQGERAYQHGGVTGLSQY
Summary of the method: as §1

Q969T7 = target: T10, Q969T7 (Homo sapiens, UniProt Q969T7)
T10 construct: endogenous in cells; host or cells: DM93 cells (SILAC), live-cell treatment
T10 sequence (Q969T7 whole entry): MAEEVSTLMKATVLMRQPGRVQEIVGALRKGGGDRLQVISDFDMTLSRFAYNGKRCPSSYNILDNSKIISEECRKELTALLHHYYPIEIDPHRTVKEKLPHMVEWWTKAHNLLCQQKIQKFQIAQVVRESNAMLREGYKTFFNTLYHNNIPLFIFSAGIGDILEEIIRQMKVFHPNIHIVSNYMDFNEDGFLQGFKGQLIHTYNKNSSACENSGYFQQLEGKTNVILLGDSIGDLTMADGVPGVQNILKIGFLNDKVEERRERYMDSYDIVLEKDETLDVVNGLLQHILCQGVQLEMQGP
Summary of the method: as §1

Q9H009 = Q9H009 (Homo sapiens, UniProt Q9H009)
Summary of the method: as §1

O14578 = target: T11, O14578 (Homo sapiens, UniProt O14578)
T11 construct: endogenous in cells; host or cells: DM93
Summary of the method: as §1

P15880 = target: T12, P15880 (Homo sapiens, UniProt P15880)
T12 construct: endogenous in cells; host or cells: DM93 cells (SILAC)
Summary of the method: as §1

Q13057 = target: T13, Q13057 (Homo sapiens, UniProt Q13057)
T13 construct: performing SuTEx compound screening directly in cells; endogenous in cells; host or cells: DM93 cells (SILAC), soluble fraction
T13 sequence (Q13057 whole entry): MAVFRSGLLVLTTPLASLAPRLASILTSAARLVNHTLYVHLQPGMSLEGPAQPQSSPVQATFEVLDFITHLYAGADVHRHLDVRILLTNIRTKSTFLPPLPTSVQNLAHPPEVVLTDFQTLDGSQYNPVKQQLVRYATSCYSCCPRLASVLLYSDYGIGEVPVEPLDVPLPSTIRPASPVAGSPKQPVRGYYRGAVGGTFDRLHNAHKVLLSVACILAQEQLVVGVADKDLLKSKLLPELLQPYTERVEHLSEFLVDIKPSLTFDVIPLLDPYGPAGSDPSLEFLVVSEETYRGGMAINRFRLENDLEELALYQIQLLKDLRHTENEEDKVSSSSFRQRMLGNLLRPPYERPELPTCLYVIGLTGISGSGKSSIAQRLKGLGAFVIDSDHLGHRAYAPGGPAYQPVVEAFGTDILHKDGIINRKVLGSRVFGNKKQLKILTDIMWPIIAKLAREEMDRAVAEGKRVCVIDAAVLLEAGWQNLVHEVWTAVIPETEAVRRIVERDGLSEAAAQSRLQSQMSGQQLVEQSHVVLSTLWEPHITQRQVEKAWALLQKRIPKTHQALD
Summary of the method: as §1

Q9NW64 = target: T14, Q9NW64 (Homo sapiens, UniProt Q9NW64)
T14 construct: endogenous in cells; host or cells: DM93 cells (SILAC)
T14 sequence (Q9NW64 whole entry): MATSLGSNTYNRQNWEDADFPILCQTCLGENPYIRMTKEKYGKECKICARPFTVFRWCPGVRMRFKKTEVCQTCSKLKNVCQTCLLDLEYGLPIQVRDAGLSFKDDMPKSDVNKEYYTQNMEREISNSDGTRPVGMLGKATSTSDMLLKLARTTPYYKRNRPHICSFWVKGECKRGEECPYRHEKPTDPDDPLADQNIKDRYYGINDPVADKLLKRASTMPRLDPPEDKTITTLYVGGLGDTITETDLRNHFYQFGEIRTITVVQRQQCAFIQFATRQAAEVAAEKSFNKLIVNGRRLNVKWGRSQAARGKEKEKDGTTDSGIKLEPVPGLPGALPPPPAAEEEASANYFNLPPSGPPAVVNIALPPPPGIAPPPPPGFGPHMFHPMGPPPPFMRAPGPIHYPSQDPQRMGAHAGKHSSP
Summary of the method: as §1

Q9NZQ3 = target: T15, Q9NZQ3 (Homo sapiens, UniProt Q9NZQ3)
T15 construct: endogenous in cells; host or cells: DM93 cells (SILAC)
Summary of the method: as §1

Q9P2E9 = target: T16, Q9P2E9 (Homo sapiens, UniProt Q9P2E9)
T16 construct: endogenous in cells; host or cells: DM93 cells (SILAC)
Summary of the method: as §1

P12268 = target: T17, P12268 (Homo sapiens, UniProt P12268)
T17 construct: endogenous in cells; host or cells: DM93 cells (SILAC)
T17 sequence (P12268 2-514 limits assumed): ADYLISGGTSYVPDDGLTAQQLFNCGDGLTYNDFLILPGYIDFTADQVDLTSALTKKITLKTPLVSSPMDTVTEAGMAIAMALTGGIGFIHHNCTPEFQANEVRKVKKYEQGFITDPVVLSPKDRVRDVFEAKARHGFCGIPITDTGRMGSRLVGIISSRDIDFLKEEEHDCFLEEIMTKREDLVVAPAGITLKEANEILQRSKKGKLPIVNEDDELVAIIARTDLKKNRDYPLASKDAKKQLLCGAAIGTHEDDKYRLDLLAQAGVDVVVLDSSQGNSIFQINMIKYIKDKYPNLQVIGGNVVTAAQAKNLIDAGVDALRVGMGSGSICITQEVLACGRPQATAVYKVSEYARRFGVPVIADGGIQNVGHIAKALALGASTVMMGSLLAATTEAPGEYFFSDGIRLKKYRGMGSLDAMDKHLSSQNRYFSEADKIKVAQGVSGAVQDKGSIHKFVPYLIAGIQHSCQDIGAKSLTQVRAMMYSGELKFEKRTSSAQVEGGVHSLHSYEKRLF
Summary of the method: as §1

Q15154 = target: T18, Q15154 (Homo sapiens, UniProt Q15154)
T18 construct: performing SuTEx compound screening directly in cells; endogenous in cells; host or cells: DM93 cells (SILAC), soluble fraction
Summary of the method: as §1

O=C(c1ccc(S(=O)(=O)n2cncn2)cc1)N1CCC(c2ccccc2)CC1 [HHS-0701, (4-((1H-1,2,4-triazol-1-yl)sulfonyl)phenyl)(4-phenylpiperidin-1-yl)methanone]
liganded tyrosine site 134 (P49721): HHS0701.Y (tyrosine sites that showed >80% reductions (SR >5) in probe labeling in cells treated with compounds (liganded sites))
liganded tyrosine site 261 (Q92620): HHS0701.Y (tyrosine sites that showed >80% reductions (SR >5) in probe labeling in cells treated with compounds (liganded sites))

O=C(NCC1CC1)c1ccc(S(=O)(=O)n2cncn2)cc1 [HHS-0201, 4-((1H-1,2,4-triazol-1-yl)sulfonyl)-N-(cyclopropylmethyl)benzamide]
liganded tyrosine site 295 (P13010): HHS0201.Y (tyrosine sites that showed >80% reductions (SR >5) in probe labeling in cells treated with compounds (liganded sites))
liganded tyrosine site 1365 (P42704): HHS0201.Y (tyrosine sites that showed >80% reductions (SR >5) in probe labeling in cells treated with compounds (liganded sites))
liganded tyrosine site 160 (P62993): HHS0201.Y (tyrosine sites that showed >80% reductions (SR >5) in probe labeling in cells treated with compounds (liganded sites))
liganded tyrosine site 293 (Q9H3P7): HHS0201.Y|HHS0301.Y (tyrosine sites that showed >80% reductions (SR >5) in probe labeling in cells treated with compounds (liganded sites))
liganded tyrosine site 163 (Q9UI12): HHS0201.Y|HHS0301.Y (tyrosine sites that showed >80% reductions (SR >5) in probe labeling in cells treated with compounds (liganded sites))

O=C(NC1CC1)c1ccc(S(=O)(=O)n2cncn2)cc1 [HHS-0101, 4-((1H-1,2,4-triazol-1-yl)sulfonyl)-N-cyclopropylbenzamide]
liganded tyrosine site 183 (P68104): HHS0101.Y (tyrosine sites that showed >80% reductions (SR >5) in probe labeling in cells treated with compounds (liganded sites))
liganded tyrosine site 518 (Q92900): HHS0101.Y|HHS0201.Y|HHS0401.Y|HHS0701.Y (tyrosine sites that showed >80% reductions (SR >5) in probe labeling in cells treated with compounds (liganded sites))
liganded tyrosine site 946 (Q92900): HHS0101.Y (tyrosine sites that showed >80% reductions (SR >5) in probe labeling in cells treated with compounds (liganded sites))
liganded tyrosine site 85 (Q969T7): HHS0101.Y (tyrosine sites that showed >80% reductions (SR >5) in probe labeling in cells treated with compounds (liganded sites))
liganded tyrosine site 112 (Q9H009): HHS0101.Y|HHS0201.Y|HHS0301.Y|HHS0401.Y|HHS0701.Y (tyrosine sites that showed >80% reductions (SR >5) in probe labeling in cells treated with compounds (liganded sites))

O=C(NC1CCCCC1)c1ccc(S(=O)(=O)n2cncn2)cc1 [HHS-0301, 4-((1H-1,2,4-triazol-1-yl)sulfonyl)-N-cyclohexylbenzamide]
liganded tyrosine site 818 (O14578): HHS0301.Y (tyrosine sites that showed >80% reductions (SR >5) in probe labeling in cells treated with compounds (liganded sites))
liganded tyrosine site 250 (P15880): HHS0301.Y (tyrosine sites that showed >80% reductions (SR >5) in probe labeling in cells treated with compounds (liganded sites))
liganded tyrosine site 126 (Q13057): HHS0301.Y (tyrosine sites that showed >80% reductions (SR >5) in probe labeling in cells treated with compounds (liganded sites))
liganded tyrosine site 116 (Q9NW64): HHS0301.Y (tyrosine sites that showed >80% reductions (SR >5) in probe labeling in cells treated with compounds (liganded sites))
liganded tyrosine site 52 (Q9NZQ3): HHS0301.Y (tyrosine sites that showed >80% reductions (SR >5) in probe labeling in cells treated with compounds (liganded sites))
liganded tyrosine site 647 (Q9P2E9): HHS0301.Y (tyrosine sites that showed >80% reductions (SR >5) in probe labeling in cells treated with compounds (liganded sites))

O=C(NCc1ccccc1)c1ccc(S(=O)(=O)n2cncn2)cc1 [HHS-0401, 4-((1H-1,2,4-triazol-1-yl)sulfonyl)-N-benzylbenzamide]
liganded tyrosine site 233 (P12268): HHS0401.Y (tyrosine sites that showed >80% reductions (SR >5) in probe labeling in cells treated with compounds (liganded sites))
liganded tyrosine site 1424 (Q15154): HHS0401.Y|HHS0701.Y (tyrosine sites that showed >80% reductions (SR >5) in probe labeling in cells treated with compounds (liganded sites))

Source: patent publication US20240210412A1, “SULFONYL-TRIAZOLE COMPOUNDS USEFUL AS LIGANDS AND INHIBITORS OF PROSTAGLANDIN REDUCTASE 2” (University of Virginia Patent Foundation, priority 2021, published 2024)
